Usually Km stands for the concentration of substrate that gives half-maximal velocity.

This passage reports Km results from article PMC8747370, “Characterization of Two BAHD Acetyltransferases Highly Expressed in the Flowers of Jasminum sambac (L.) Aiton” (Plants, 2021).

The test system of assay [1] is T1, GST-JsBEAT1.
T1 construct: tag kept
Briefly: GC-MS of benzyl acetate formed, curve fit. The format is biochemical, Jasminum sambac. As to conditions: 250 mM Tris-HCl pH 7.5, 25 mM MgCl2, 25 mM KCl, 10 mM β-mercaptoethanol, 30 °C, 1 h. The source says:
GC-MS of benzyl acetate formed, curve fit on GST-JsBEAT1

Assay [2] has as its system T2, 6xHis-JsBEAT2.
T2 construct: full-length cDNA, N-terminal 6xHis tag (pQE30), E. coli M15, Ni-NTA purified
In words: GC-MS of benzyl acetate formed, curve fit. The format is biochemical, Jasminum sambac. To be noted: 250 mM Tris-HCl pH 7.5, 25 mM MgCl2, 25 mM KCl, 10 mM β-mercaptoethanol, 30 °C, 1 h. An excerpt: GC-MS of benzyl acetate formed, curve fit on 6xHis-JsBEAT2

As to `CC(=O)SCCNC(=O)CCNC(=O)[C@H](O)C(C)(C)COP(=O)(O)OP(=O)(O)OC[C@H]1O[C@@H](n2cnc3c(N)ncnc32)[C@H](O)[C@@H]1OP(=O)(O)O` [acetyl-CoA], the Km in assay [1] (300 μM benzyl alcohol (fixed)) worked out at 546 ± 94.5 µM; in assay [2] (with benzyl alcohol (fixed concentration not restated)), 317 ± 31.7 µM.

Turning to `OCc1ccccc1` [benzyl alcohol], the Km in assay [1] (300 μM acetyl-CoA (fixed)) stood at 447 ± 108 µM; in assay [2] (with acetyl-CoA (fixed concentration not restated)) it was 279 ± 26.5 µM.
